Where two headings read alike, the source gives them in different places.

Data set [1] has as its system beta amyloid production. In words: Repressor Release Assay (RRA). Format: cell-based. As to conditions: for fold induction at 10 µg/mL / fold induction at 20 µg/mL: read-out: APPI Fold Increase; for APPI % of Example #98: relative to Example 98. The procedure, abridged: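 Read-out is luciferase luminescence (RLU) after 36-48 h duplicate compound exposure of transfected CHO-K1 cells. These cells carry transiently introduced APP-lacI and pRSVO-luc DNA. Diluent control was 25 mM Hepes/1% DMSO; toxicity recorded as binary score (1 non-toxic, 0 toxic).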

Data set [2] has as its system CHO-K1 cells. In words: Toxicity in RRA (loss of luciferase signal). The settings on record: toxicity = loss of signal (<0.75 fold increase).
Protocol: The beta amyloid inhibitory activity of the compounds of the present invention was determined using the Repressor Release Assay (RRA).
“Fold Increase” refers to the amount of luciferase activity (measured in relative light units) over diluent control. “SEM” refers to the standard error of the mean for fold increase.
The mark [3] stands for this setting: Conc 10 μg/ml, luciferase activity over diluent control.
[4] abbreviates: Conc 20 μg/ml, luciferase activity over diluent control.

Regarding `CC[C@H](C)[C@H](NS(=O)(=O)c1ccc(Cl)cc1)C(O)c1cccc2ccccc12` (stereo partly drawn) [Example 184, 4-chloro-N-{(1S,2S)-1-[hydroxy(1-naphthyl)methyl]-2-methylbutyl}benzenesulfonamide], the fold induction at 10 µg/mL in data set [1] (setting [3]) is 1.7. For the same compound, the “(%)APPI Toxicity” value in data set [2] (Conc 10 μg/ml) is 1 (1=non-toxic).
Take `CC[C@H](C)[C@H](NS(=O)(=O)c1ccccc1F)C(O)c1ccc(F)cc1` (stereo partly drawn) [Example 207, 2-fluoro-N-{(1S,2S)-1-[(4-fluorophenyl) (hydroxy)methyl]-2-methylbutyl}benzenesulfonamide]: in data set [1] (setting [3]), the fold induction at 10 µg/mL is 1.81. Besides, the “(%)APPI Toxicity” value in data set [2] (Conc 10 μg/ml) is 1 (1=non-toxic).
As for `CC[C@H](C)[C@H](NS(=O)(=O)c1ccc(F)cc1)C(O)c1ccccc1C` (stereo partly drawn) [Example 131, 4-fluoro-N{(1S,2S)-1-[hydroxy-(2-methylphenyl)methyl]-2-methylbutyl}benzenesulfonamide], the “APPI Fold Increase” value in data set [1] (setting [3]) was 1.65 fold. In addition, in data set [1] (Conc 10 μg/ml), the “APPI % of Example #98” value came out at 64.57%. Also, in data set [2] (Conc 10 μg/ml), the “(%)APPI Toxicity” value was 1 (1=non-toxic).
In the case of “4-bromo-N-((1S,2 S)-1-{hydroxy-[4-(methylsulfanyl)phenyl]methyl}-2-methylbutyl) benzenesulfonamide [Example 163]”, in data set [1] (setting [3]), the “APPI Fold Increase” value was found to be 1.64 fold. Moreover, the “APPI % of Example #98” value in data set [1] (Conc 10 μg/ml) amounted to 69.41%. Also, in data set [2] (Conc 10 μg/ml), the “(%)APPI Toxicity” value is recorded as 1 (1=non-toxic).
As for `CC[C@H](C)[C@H](NS(=O)(=O)c1ccc(F)cc1)C(O)C(C)(C)C` (stereo partly drawn) [Example 132, 4-fluoro-N-{(1S)-2-hydroxy-3,3-dimethyl-1-[(1S)-1-methylpropyl]butyl}benzenesulfonamide], the fold induction at 10 µg/mL in data set [1] (setting [3]) is 1.54. In addition, the “(%)APPI Toxicity” value in data set [2] (Conc 10 μg/ml) was 1 (1=non-toxic).
For `CC[C@H](C)[C@H](NS(=O)(=O)c1ccc(Cl)cc1)C(O)c1ccc(Cl)cc1` (stereo partly drawn) [Example 177, 4-chloro-N-{(1S,2S)-1-[(4-chlorophenyl) (hydroxy)methyl]-2-methylbutyl}benzenesulfonamide], in that order: 1.95 and 1 (1=non-toxic).
Consider `O=S(=O)(N[C@H](CO)C1CCCCC1)c1ccc(Br)cc1` [Example 16, 4-Bromo-N-[(1S)-1-cyclohexyl-2-hydroxyethyl]benzenesulfonamide], for which, in data set [1] (setting [4]), the fold induction at 20 µg/mL was 2.7. The “(%)APPI Toxicity” value in data set [2] (Conc 20 μg/ml) was 1 (1=non-toxic).
As to `CC[C@H](C)[C@@H](CO)NS(=O)(=O)c1cc(Cl)c(Cl)cc1Cl` [Example 25, 2,4,5-trichloro-N-[(1S,2S)-1-(hydroxymethyl)-2-methylbutyl]benzenesulfonamide], in data set [1] (setting [4]), the fold induction at 20 µg/mL was determined as 1.8. Moreover, in data set [2] (Conc 20 μg/ml), the “(%)APPI Toxicity” value is reported as 1 (1=non-toxic).
Turning to `CCCCCC[C@@H](C(C)C)[C@@H](CO)NS(=O)(=O)c1ccc(Cl)cc1` [Example 70, 4-chloro-N-[(1S,2S)-1-(hydroxymethyl)-2-isopropyloctyl]benzenesulfonamide], in data set [1] (Conc 20 μg/ml, luciferase activity (RLU) over diluent control), the fold induction at 20 µg/mL amounted to 2. In data set [2] (Conc 20 μg/ml, 1=non-toxic, 0=toxic), the “(%)APPI Toxicity” value is listed as 1 (1=non-toxic).
Take `O=S(=O)(NC1(CO)CCCCC1)c1ccc(Br)cc1` [Example 120, 4-Bromo-N-[1-(hydroxymethyl)-cyclohexyl]-benzenesulfonamide]: the fold induction at 20 µg/mL in data set [1] (setting [4]) is 5. The “(%)APPI Toxicity” value in data set [2] (Conc 20 μg/ml) is on record as 1 (1=non-toxic).
Turning to `CC[C@H](C)[C@@H](CO)NS(=O)(=O)c1c(C)cccc1Cl` [Example 7, 2-chloro-N-[(1S,2S)-1-(hydroxymethyl)-2-methylbutyl]-6-methylbenzenesulfonamide], the fold induction at 20 µg/mL in data set [1] (setting [4]) stood at 1.6. For the same compound, the “(%)APPI Toxicity” value in data set [2] (Conc 20 μg/ml) is on record as 1 (1=non-toxic).
For `CC[C@H](C)[C@H](NS(=O)(=O)c1ccc(F)cc1)C(O)CCC1OCCCO1` (stereo partly drawn) [Example 140, N-{(1S)-4-(1,3-dioxan-2-yl)-2-hydroxy-1-[(1S)-1-methylpropyl]butyl}-4-fluorobenzenesulfonamide], in data set [1] (setting [3]), the fold induction at 10 µg/mL came to 1.52. Moreover, the “(%)APPI Toxicity” value in data set [2] (Conc 10 μg/ml) was 1 (1=non-toxic).
Regarding `CC[C@H](C)[C@@H](CO)N(Cc1ccco1)S(=O)(=O)c1ccc(Cl)cc1` [Example 46, 4-chloro-N-(2-furylmethyl)-N-[(1S,2S)-1-(hydroxymethyl)-2-methylbutyl]benzenesulfonamide], the fold induction at 20 µg/mL in data set [1] (setting [4]) came to 1.8. Moreover, the “(%)APPI Toxicity” value in data set [2] (Conc 20 μg/ml) is reported as 1 (1=non-toxic).
With `CC[C@H](C)[C@@H](CO)N(CCSC)S(=O)(=O)c1ccc(Cl)cc1` [Example 47, 4-chloro-N-[(1S,2S)-1-(hydroxymethyl)-2-methylbutyl]-N-[2-(methylthio)ethyl]benzenesulfonamide], the fold induction at 20 µg/mL in data set [1] (setting [4]) is 2.4. In addition, in data set [2] (Conc 20 μg/ml), the “(%)APPI Toxicity” value is 1 (1=non-toxic).
As to `CCCCCC(O)(CCCCC)[C@@H](NS(=O)(=O)c1ccc(F)cc1)[C@@H](C)CC` [Example 237, 4-fluoro-N-{(1S)-2-hydroxy-1-[(1S)-1-methylpropyl]-2-pentylheptyl}benzenesulfonamide], the fold induction at 10 µg/mL in data set [1] (setting [3]) worked out at 6.05. For the same compound, the “(%)APPI Toxicity” value in data set [2] (Conc 10 μg/ml) is listed as 1 (1=non-toxic).
On to `CCCCCCC(O)[C@@H](NS(=O)(=O)c1ccccc1F)[C@@H](C)CC` (stereo partly drawn) [Example 203, 2-fluoro-N-{(1S)-2-hydroxy-1-[(1S)-1-methylpropyl]octyl}benzenesulfonamide], for which, in data set [1] (setting [3]), the fold induction at 10 µg/mL worked out at 3.47. The “(%)APPI Toxicity” value in data set [2] (Conc 10 μg/ml) is 1 (1=non-toxic).
`C=CC(O)[C@@H](NS(=O)(=O)c1ccc(Cl)cc1)[C@@H](C)CC` (stereo partly drawn) [Example 174, 4-chloro-N-{(1S)-2-hydroxy-1-[(1S)-1-methylpropyl]-3-butenyl}benzenesulfonamide]: in data set [1] (setting [3]), the fold induction at 10 µg/mL worked out at 2.1. In addition, in data set [2] (Conc 10 μg/ml), the “(%)APPI Toxicity” value was 1 (1=non-toxic).
As to `CC[C@H](C)[C@H](NS(=O)(=O)c1ccc(F)cc1)C(O)(C(C)C)C(C)C` [Example 239, 4-fluoro-N-{(1S)-2-hydroxy-2-isopropyl-3-methyl-1-[(1S)-1-methylpropyl]butyl}benzenesulfonamide], the fold induction at 10 µg/mL in data set [1] (setting [3]) is 1.54. Further, the “(%)APPI Toxicity” value in data set [2] (Conc 10 μg/ml) is reported as 1 (1=non-toxic).
Regarding `C/C=C(\C)C(O)(/C(C)=C/C)[C@@H](NS(=O)(=O)c1ccc(Br)cc1)[C@@H](C)CC` (stereo partly drawn) [Example 220, 4-bromo-N-{(1S,3E)-2-hydroxy-3-methyl-2-[(1E)-1-methyl-1-propenyl]-1-[(1S)-1-methylpropyl]-3-pentenyl}benzenesulfonamide], the fold induction at 10 µg/mL in data set [1] (setting [3]) is 3.29. Moreover, the “(%)APPI Toxicity” value in data set [2] (Conc 10 μg/ml) is 1 (1=non-toxic).
In the case of `CCCCCC[C@@H](C)[C@@H](CO)NS(=O)(=O)c1ccc(Cl)cc1` [Example 50, 4-chloro-N-[(1S,2R)-1-(hydroxymethyl)-2-methyloctyl]benzenesulfonamide], the fold induction at 20 µg/mL in data set [1] (setting [4]) was 2.5. Further, the “(%)APPI Toxicity” value in data set [2] (Conc 20 μg/ml) is listed as 1 (1=non-toxic).
In the case of `CC[C@H](C)[C@H](NS(=O)(=O)c1cccc(Cl)c1)C(O)c1ccc(SC)cc1` (stereo partly drawn) [Example 201, 3-chloro-N-((1S,2S)-1-{hydroxy[4-(methylsulfanyl)phenyl]methyl}-2-methylbutyl)benzenesulfonamide], the fold induction at 10 µg/mL in data set [1] (setting [3]) came to 2.45. Moreover, the “(%)APPI Toxicity” value in data set [2] (Conc 10 μg/ml) was 1 (1=non-toxic).
`CCCCCCC(O)[C@@H](NS(=O)(=O)c1ccc(Cl)cc1)[C@@H](C)CC` (stereo partly drawn) [Example 167, 4-chloro-N-{(1S)-2-hydroxy-1-[(1S)-1-methylpropyl]octyl}benzenesulfonamide]: the fold induction at 10 µg/mL in data set [1] (setting [3]) came to 9.66. The “(%)APPI Toxicity” value in data set [2] (Conc 10 μg/ml) is 1 (1=non-toxic).
On to `CC[C@H](C)[C@H](NS(=O)(=O)c1cccc(Cl)c1)C(C)O` (stereo partly drawn) [Example 185, 3-chloro-N-[(1S,2S)-1-(1-hydroxyethyl)-2-methylbutyl]benzenesulfonamide], for which the fold induction at 10 µg/mL in data set [1] (setting [3]) was determined as 1.51. In addition, the “(%)APPI Toxicity” value in data set [2] (Conc 10 μg/ml) is 1 (1=non-toxic).
`O=S(=O)(NC1(CO)CC2CCC1C2)c1ccc(Br)cc1` (stereo not drawn) [Example 121, 4-bromo-N-[2-(hydroxymethyl)bicyclo[2.2.1.]hept-2-yl]benzenesulfonamide]: in data set [1] (setting [4]), the “APPI Fold Increase” value is reported as 1.7 fold. Further, in data set [1] (Conc 20 μg/ml), the “APPI % of Example #98” value stood at 45.1%. For the same compound, the “(%)APPI Toxicity” value in data set [2] (Conc 20 μg/ml) is reported as 1 (1=non-toxic).
On to `C=CCC(O)(CC=C)[C@@H](NS(=O)(=O)c1ccccc1F)[C@@H](C)CC` [Example 264, N-{(1S)-2-allyl-2-hydroxy-1-[(1S)-1-methylpropyl]-4-pentenyl}-2-fluorobenzenesulfonamide], for which the fold induction at 10 µg/mL in data set [1] (setting [3]) is 2. The “(%)APPI Toxicity” value in data set [2] (Conc 10 μg/ml) is reported as 1 (1=non-toxic).
For `CC[C@H](C)[C@H](NS(=O)(=O)c1ccc(Cl)cc1)C(O)C(C)C` (stereo partly drawn) [Example 170, 4-chloro-N-{(1S)-2-hydroxy-3-methyl-1-[(1S)-1-methylpropyl]butyl}benzenesulfonamide], the fold induction at 10 µg/mL in data set [1] (setting [3]) amounted to 1.92. In data set [2] (Conc 10 μg/ml), the “(%)APPI Toxicity” value is listed as 1 (1=non-toxic).
Take `CSc1ccc([C@H](O)[C@H](CO)NS(=O)(=O)c2ccccc2F)cc1` [Example 116, 2-fluoro-N-{(1S,2S)-2-hydroxy-1-(hydroxymethyl)-2-[4-(methylthio)phenyl]ethyl}benzenesulfonamide]: the fold induction at 20 µg/mL in data set [1] (setting [4]) is 1.6. In addition, in data set [2] (Conc 20 μg/ml), the “(%)APPI Toxicity” value was 1 (1=non-toxic).

The record behind these values is patent publication US7166622B2, “Substituted phenylsulfonamide inhibitors of beta amyloid production” (Wyeth, priority 2002, dated 2007).
